In patent publication US12564638B2 (SHANGHAITECH UNIVERSITY, priority 2019, dated 2026):
Like-named read-outs stand apart in the source and are kept apart here. Values belong to the compound of their own block, whether it stands above or below them.

Key:
Assay type in all cases: cell-based
[1] = test system: HCC827 cells (EGFR Exon19 del, non-small cell lung cancer cells); experiment: Cell viability assay (WST/CCK8), HCC827 cells; conditions: Homo sapiens, HCC827, 72 h, read-out: IC50 (half inhibitory concentration)
Outline: (§1)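 Cells seeded at 3 000/well in RPMI1640 complete medium, dosed next day with compounds (top 10 μM, 3-fold, 10 points) for 72 h. Viability read with WST (CCK8) reagent; DMSO as negative control, EGFR TKIs as positive controls; IC50 determined.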

[2] = test system: H1975 (EGFR T790M+L858R mutation, non-small cell lung cancer cell line); experiment: Cell viability assay (WST/CCK8), H1975 cells; conditions: Homo sapiens, NCI-H1975, 72 hours, WST, read-out: IC50 (half inhibitory concentration)
Description: (§2) The cell lines with abnormal EGFR expression used are as follows: • HCC827 cells (EGFR Exon19 del, non-small cell lung cancer cells); • PC9 cells (EGFR Exon 19 del, non-small cell lung cancer cells); • PC9BracA1 (EGFR Exon 19 del+T790M, non-small cell lung cancer cells) • H1975 (EGFR Exon T790M+L858R mutation, non-small cell lung cancer cell line) • BT474 cells (HER2 positive breast cancer cells)
(§3) All of the half inhibitory concentrations (IC50) of these compounds of the present invention were determined with WST reagent from Fuyuan Biotec Company. The specific experiment procedures are as follows: Cancer cells were planted in 96-well-plate at the density of 3 000 cells per well with 100 μL RPMI1640 completed culture medium. In the next day, compounds with indicated concentrations were added to the cells, DMSO was used as the negative control and the EGFR TKIs were used to treat cells as the positive groups. After 72 hours drug treatment, cell viability was measured by using the WST reagent following the instructions.

[3] = test system: PC9 cells (EGFR Exon 19 del, non-small cell lung cancer cells); experiment: Cell viability assay (WST/CCK8), PC9 cells; conditions: Homo sapiens, read-out: IC50 (half inhibitory concentration)
Outline: as §1

[4] = test system: BT474 cells (HER2 positive breast cancer cells); experiment: Cell viability assay (CCK8), BT474 cells; conditions: Homo sapiens, BT-474, Table 10, BT474, 72 hours, read-out: IC50 (half inhibitory concentration)
Description: as §2
as §3, with “instructions. The growth inhibition curve of the compounds on cells were plotted by Prism GraphPad, and the compounds IC50 calculated from it.” for “instructions.”
The cell viability assays were taken to determine the anti-tumor activity of these indicated compounds in BT474 cells, which can overexpress HER2 protein. The cells were treated with the gradient concentration of these compounds (the maximum concentration: 10 μM; 3-fold dilution ratio, 10 concentration gradients) for 72 hours and then incubated with the CCK8 reagent to determine the cell viability.

[5] = HCC827 (Exon19 Del), 72 hours, WST (CCK8)
[6] = PC-9, PC9 (Exon19 Del), 72 hours, WST (CCK8)
[7] = Table 6, canertinib-based compounds, HCC827 (Exon19 Del), 72 hours, WST
[8] = PC-9, Table 6, canertinib-based compounds, PC9 (Exon19 Del), 72 hours, WST
[9] = Table 8, osimertinib-based compounds, HCC827, 72 hours, WST
[10] = Table 8, osimertinib-based compounds, H1975

IC50 [1, 5]: 12 nM | IC50 ([2]; H1975 (L858R + T790M)): 114 nM | IC50 [3, 6]: 32.6 nM
Structure (SMILES): COc1cc2ncnc(Nc3ccc(F)c(Cl)c3)c2cc1NC(=O)/C=C/CN1CCC(NC(=O)CNc2cccc3c2C(=O)N(C2CCC(=O)NC2=O)C3=O)CC1 (centres unmarked) [SIAIS249081, (E)-N-(4-((3-chloro-4-fluorophenyl)amino)-7-methoxyquinazolin-6-yl)-4-(4-(2-((2-(2,6-dioxopiperidin-3-yl)-1,3-dioxoisoindolin-4-yl)amino)acetamido)piperidin-1-yl)but-2-enamide]

IC50 [1, 7]: 9.3 nM | IC50 [4]: 5.3 nM | IC50 [3, 8]: 43.4 nM
Structure (SMILES): C=CC(=O)Nc1cc2c(Nc3ccc(F)c(Cl)c3)ncnc2cc1OCCCN1CCN(C(=O)CSc2cccc3c2CN(C2CCC(=O)NC2=O)C3=O)CC1 (centres unmarked) [SIAIS262121, N-(4-((3-chloro-4-fluorophenyl)amino)-7-(3-(4-(2-((2-(2,6-dioxopiperidin-3-yl)-1-oxoisoindolin-4-yl)thio)acetyl)piperazin-1-yl)propoxy)quinazolin-6-yl)acrylamide]

IC50 [1, 7]: 14.3 nM | IC50 [4]: 42.1 nM | IC50 [3, 8]: 15.9 nM
Structure (SMILES): C=CC(=O)Nc1cc2c(Nc3ccc(F)c(Cl)c3)ncnc2cc1OCCCN1CCN(C(=O)CCCC(=O)N[C@H](C(=O)N2C[C@H](O)C[C@H]2C(=O)NCc2ccc(-c3scnc3C)cc2)C(C)(C)C)CC1 [SIAIS262128, (2S,4R)-1-((S)-2-(5-(4-(3-((6-acrylamido-4-((3-chloro-4-fluorophenyl)amino)quinazolin-7-yl)oxy)propyl)piperazin-1-yl)-5-oxopentanamido)-3,3-dimethylbutanoyl)-4-hydroxy-N-(4-(4-methylthiazol-5-yl)benzyl)pyrrolidine-2-carboxamide]

IC50 [1, 5]: 1.1 nM | IC50 [4]: 51.5 nM | IC50 [3, 6]: 13 nM
Structure (SMILES): COc1cc2ncnc(Nc3ccc(F)c(Cl)c3)c2cc1NC(=O)/C=C/CN1CCC(N2CCN(Cc3ccc(CNc4cccc5c4CN(C4CCC(=O)NC4=O)C5=O)cc3)CC2)CC1 (centres unmarked) [SIAIS337024, (E)-N-(4-((3-chloro-4-fluorophenyl)amino)-7-methoxyquinazolin-6-yl)-4-(4-(4-(4-(((2-(2,6-dioxopiperidin-3-yl)-1-oxoisoindolin-4-yl)amino)methyl)benzyl)piperazin-1-yl)piperidin-1-yl)but-2-enamide]

IC50 [1, 9]: 47.7 nM | IC50 [2, 10]: 21 nM
Structure (SMILES): C=CC(=O)Nc1cc(Nc2nccc(-c3cn(C)c4ccccc34)n2)c(OC)cc1N(C)CCN(C)C(=O)CCCCCCSc1cccc2c1CN(C1CCC(=O)NC1=O)C2=O (centres unmarked) [SIAIS337057, N-(2-((2-acrylamido-5-methoxy-4-((4-(1-methyl-1H-indol-3-yl)pyrimidin-2-yl)amino)phenyl)(methyl)amino)ethyl)-7-((2-(2,6-dioxopiperidin-3-yl)-1-oxoisoindolin-4-yl)thio)-N-methylheptanamide]

IC50 [1, 9]: 122 nM | IC50 [2, 10]: 171 nM
Structure (SMILES): C=CC(=O)Nc1cc(Nc2nccc(-c3cn(C)c4ccccc34)n2)c(OC)cc1N(C)CCN(C)C(=O)CCCCCCCCCSc1cccc2c1CN(C1CCC(=O)NC1=O)C2=O (centres unmarked) [SIAIS337060, N-(2-((2-acrylamido-5-methoxy-4-((4-(1-methyl-1H-indol-3-yl)pyrimidin-2-yl)amino)phenyl)(methyl)amino)ethyl)-10-((2-(2,6-dioxopiperidin-3-yl)-1-oxoisoindolin-4-yl)thio)-N-methyldecanamide]

IC50 [1]: 0.7 nM | IC50 [4]: 17.5 nM | IC50 ([3]; PC-9, 72 h): 0.9 nM
Structure (SMILES): C=CC(=O)Nc1cc2c(Nc3ccc(F)c(Cl)c3)ncnc2cc1OCCCN1CCOCC1 [canertinib, reference compound]

IC50 [1, 5]: 0.5 nM | IC50 ([1]; Table 3, poziotinib-based compounds, HCC827 (Exon19 Del), 72 hours, WST (CCK8)): 0.5 nM | IC50 [4]: < 0.1 nM | IC50 ([3]; PC-9, Table 3, poziotinib-based compounds, PC9 (Exon 19 Del), 72 hours, WST (CCK8)): < 0.1 nM
Structure (SMILES): C=CC(=O)N1CCC(Oc2cc3c(Nc4ccc(Cl)c(Cl)c4F)ncnc3cc2OC)CC1 [poziotinib, reference compound]
